Experimental data published in US6664419B1, “Method and device for purifying substances by means of crystallization” (Stockhausen GmbH & Co. KG, priority 1999, dated 2003).
Read-outs that look alike come from different tables or passages of the source.

Experiment: Solubility limit of impurity in molten acrylic acid
Type: physicochemical
Excerpt: In addition to other impurities, acrylic acid pre-purified by distillation may contain maleic acid, its anhydride, and phenothiazine which precipitate from the molten material at concentrations of more than 4% (maleic acid) and 1.5% (phenothiazine), respectively. The respective amounts of solid precipitating during a crystallization process as a result of surpassing the solubility limit can be inferred from the following Examples (Table 1 and 2).
The solubility of maleic acid in acrylic acid is about 4%. The residue (13.2 kg) contains 20.4% or 2.7 kg of maleic acid, 2.4 kg of which precipitates as a solid as a result of surpassing the solubility limit.

Row | Structure (SMILES) | solubility in acrylic acid (in acrylic acid melt / mother liquor, precipitates above this concentration) | solubility in acrylic acid
1 | c1ccc2c(c1)Nc1ccccc1S2 [PTZ, phenothiazine] | about 1.5% | 
2 | O=C(O)/C=C\C(=O)O [maleic acid] |  | about 4%
